From patent US20230339891A1, “URACIL DERIVATIVES AS MER-AXL INHIBITORS” (BRISTOL-MYERS SQUIBB COMPANY, priority 2018, published 2023)

Tests used:
HIS-AXL 473-End = HIS-AXL 473-End (Homo sapiens (Human), UniProt P30530); assay: AXL kinase homogeneous time resolved fluorescence (HTRF) binding assay; conditions: 1 nM kinase, fluorescein-labeled kinase tracer at Kd, 60 minutes at room temperature
How it was run: (§1)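 HTRF binding read-out after 60 min at room temperature, expressed as the 520/495 nm (fluorescein/terbium) ratio. Inhibition normalized to no-protein (100%) and vehicle (0%) controls. IC50 from 11-point dose-response; compounds from 10 mM DMSO stocks.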

GST-MERTK 578-872 = GST-MERTK 578-872 (Homo sapiens (Human), UniProt Q12866); assay: MERTK kinase homogeneous time resolved fluorescence (HTRF) binding assay; conditions: 1 nM kinase, fluorescein-labeled kinase tracer at Kd, 60 minutes at room temperature; read-out: Mer HTRF IC50
How it was run: as §1

Chain of HIS-AXL 473-End (P30530 473-894): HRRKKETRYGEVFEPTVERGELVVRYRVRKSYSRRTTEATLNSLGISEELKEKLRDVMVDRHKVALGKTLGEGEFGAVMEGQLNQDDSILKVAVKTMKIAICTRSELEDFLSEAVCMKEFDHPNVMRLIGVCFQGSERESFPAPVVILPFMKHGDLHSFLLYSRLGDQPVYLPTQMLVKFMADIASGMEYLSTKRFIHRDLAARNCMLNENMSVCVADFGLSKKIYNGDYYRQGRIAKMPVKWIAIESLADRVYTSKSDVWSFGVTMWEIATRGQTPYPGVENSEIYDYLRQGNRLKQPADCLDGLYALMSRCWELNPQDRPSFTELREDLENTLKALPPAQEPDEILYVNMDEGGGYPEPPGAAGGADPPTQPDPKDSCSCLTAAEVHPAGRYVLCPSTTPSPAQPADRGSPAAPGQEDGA
Chain of GST-MERTK 578-872 (Q12866 578-872): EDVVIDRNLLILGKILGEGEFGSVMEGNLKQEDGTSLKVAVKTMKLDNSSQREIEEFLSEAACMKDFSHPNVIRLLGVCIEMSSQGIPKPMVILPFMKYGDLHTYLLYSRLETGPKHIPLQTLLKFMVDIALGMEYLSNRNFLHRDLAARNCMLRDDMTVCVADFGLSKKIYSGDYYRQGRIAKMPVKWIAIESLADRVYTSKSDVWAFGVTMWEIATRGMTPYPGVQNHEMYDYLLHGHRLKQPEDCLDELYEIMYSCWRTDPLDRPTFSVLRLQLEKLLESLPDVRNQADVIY

| SMILES | IC50 (HIS-AXL 473-End) | IC50 (GST-MERTK 578-872) |
| --- | --- | --- |
| CS(=O)(=O)C1CCN(c2nccc(Nc3cc(Oc4ccc(NC(=O)c5cn(C6CC6)c(=O)n(-c6ccc(F)cc6)c5=O)cc4F)ccn3)n2)CC1 [Example 112, 1-cyclopropyl-N-{3-fluoro-4-[(2-{[2-(4-methanesulfonylpipedidin-1-yl)pyrimidin-4-yl]amino}pyridin-4-yl)oxy]phenyl}-3-(4-fluorophenyl)-2,4-dioxo-1,2,3,4-tetrahydropyrimidine-5-carboxamide] | 0.0008 µM | 0.0041 µM |
| CC(C)Cn1c(=O)c(C(=O)Nc2ccc(Oc3ccnc(Nc4ccnc(N5CCCC5)n4)c3)c(F)c2)cn(C(C)C)c1=O [Example 107] | 0.011 µM | 0.0054 µM |
| CC(C)n1cc(C(=O)Nc2ccc(Oc3ccnc(Nc4ccc(S(=O)(=O)N(C)C)c(N5CCN(S(C)(=O)=O)CC5)n4)c3)c(F)c2)c(=O)n(-c2ccc(F)cc2)c1=O [Example 99, N-{4-[(2-{[5-(dimethylsulfamoyl)-6-(4-methanesulfonylpiperazin-1-yl)pyridin-2-yl]amino}pyridin-4-yl)oxy]-3-fluorophenyl}-3-(4-fluorophenyl)-2,4-dioxo-1-(propan-2-yl)-1,2,3,4-tetrahydropyrimidine-5-carboxamide] | 0.0074 µM | 0.0064 µM |
| Cc1cc(Nc2cc(Oc3ccc(NC(=O)c4cn(C(C)C)c(=O)n(-c5ccc(F)cc5)c4=O)cc3F)ccn2)ncc1S(=O)(=O)N(C)C [Example 86, N-{4-[(2-{[5-(dimethylsulfamoyl)-4-methylpyridin-2-yl]amino}pyridin-4-yl)oxy]-3-fluorophenyl}-3-(4-fluorophenyl)-2,4-dioxo-1-(propan-2-yl)-1,2,3,4-tetrahydropyrimidine-5-carboxamide] | 0.01 µM | 0.031 µM |
| COC(=O)Cc1csc(Nc2cc(Oc3ccc(NC(=O)c4cn(C(C)C)c(=O)n(-c5ccc(F)cc5)c4=O)cc3F)ccn2)n1 [Example 33] | 0.019 µM | 0.067 µM |
| CC(C)n1cc(C(=O)Nc2ccc(Oc3ccnc(Nc4ccc(S(=O)(=O)N(C)C)cn4)c3)c(F)c2)c(=O)n(-c2ccc(C(F)(F)F)cc2)c1=O [Example 65] | 0.1 µM | 0.127 µM |
| CC(C)n1cc(C(=O)Nc2ccc(Oc3ccnc(Nc4ccc(C#N)c(N5CCN(S(C)(=O)=O)[C@H](C)C5)n4)c3)c(F)c2)c(=O)n(-c2ccc(F)cc2)c1=O [Example 125] | 0.0013 µM | 0.0022 µM |
| CC(C)n1cc(C(=O)Nc2ccc(Oc3ccnc(Nc4ccc(S(=O)(=O)N(C)C)cn4)c3)c(F)c2)c(=O)n(Cc2ccccc2)c1=O [Example 49] | 0.11 µM | 3.31 µM |
| CC(C)n1cc(C(=O)Nc2ccc(Oc3ccnc(Nc4ncc(C(F)(F)F)cc4F)c3)c(F)c2)c(=O)n(-c2ccc(F)cc2)c1=O [Example 12] | 0.055 µM | 0.228 µM |
| CC(C)n1cc(C(=O)Nc2ccc(Oc3ccnc(Nc4ccc(S(=O)(=O)N(C)C)cn4)c3)c(F)c2)c(=O)n(-c2ccc(F)cc2)c1=O [Example 20] | 0.0047 µM | 0.012 µM |
| CC(C)n1cc(C(=O)Nc2ccc(Oc3ccnc(Nc4ccc(S(=O)(=O)N5CCCCC5)cn4)c3)c(F)c2)c(=O)n(-c2ccc(F)cc2)c1=O [Example 76, N-{3-Fluoro-4-[(2-{[5-(piperidine-1-sulfonyl)pyridin-2-yl]amino}pyridin-4-yl)oxy]phenyl}-3-(4-fluorophenyl)-2,4-dioxo-1-(propan-2-yl)-1,2,3,4-tetrahydropyrimidine-5-carboxamide] | 0.018 µM | 0.038 µM |
| CC(C)n1cc(C(=O)Nc2ccc(Oc3ccnc(Nc4ccnc(N5CCCC5)n4)c3)c(F)c2)c(=O)n(C23CC(C2)C3)c1=O [Example 104, 3-(Bicyclo[1.1.1]pentan-1-yl)-N-(3-fluoro-4-((2-((2-(pyrrolidin-1-yl)pyrimidin-4-yl)amino)pyridin-4-yl)oxy)phenyl)-1-isopropyl-2,4-dioxo-1,2,3,4-tetrahydropyrimidine-5-carboxamide] | 0.0031 µM | 0.0039 µM |
| COC(=O)N1CCN(c2nc(Nc3cc(Oc4ccc(NC(=O)c5cn(C(C)C)c(=O)n(-c6ccc(F)cc6)c5=O)cc4F)ccn3)ccc2C(F)(F)F)CC1 [Example 139] | 0.077 µM | 0.011 µM |
| CC(C)n1cc(C(=O)Nc2ccc(Oc3ccnc(Nc4ccc(S(=O)(=O)N(C)C)cn4)c3)c(F)c2)c(=O)n(-c2ccc(Cl)cc2)c1=O [Example 66] | 0.031 µM | 0.029 µM |
| Cc1ccc(-n2c(=O)c(C(=O)Nc3ccc(Oc4ccnc(Nc5ccc(S(=O)(=O)N(C)C)cn5)c4)c(F)c3)cn(C(C)C)c2=O)cc1 [Example 62, N-{4-[(2-{[5-(Dimethylsulfamoyl)pyridin-2-yl]amino}pyridin-4-yl)oxy]-3-fluorophenyl}-3-(4-methylphenyl)-2,4-dioxo-1-(propan-2-yl)-1,2,3,4-tetrahydropyrimidine-5-carboxamide] | 0.0046 µM | 0.023 µM |
| CC(C)n1cc(C(=O)Nc2ccc(Oc3ccnc(Nc4ccc(C(F)F)cn4)c3)c(F)c2)c(=O)n(-c2ccc(F)cc2)c1=O [Example 10] | 0.015 µM | 0.043 µM |
